The values that follow come from ChEMBL document CHEMBL1201862, “PubChem BioAssay data set” (2004).

What is called CC50 is the concentration that lowers cell viability or growth by half. The AC50 is the concentration giving half of the maximal activity seen. By EC50 is commonly meant the concentration that produces a half-maximal response.

Assay [1] is described as follows: viability of uninfected HEp-2 cells – cell-based, HTS, cytotoxicity control for RSV inhibitor project, dose response (AID 2410). Format: functional. Conditions: human respiratory syncytial virus.
Another assay concerns the target Cytochrome P450 2D6 (Homo sapiens, UniProt P10635).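 Also: CYP2D6 member of a cytochrome P450 panel assay.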
Assay [2] addresses T1, Heat shock factor protein 1 (Mus musculus, UniProt P38532).
T1 sequence (P38532 whole entry): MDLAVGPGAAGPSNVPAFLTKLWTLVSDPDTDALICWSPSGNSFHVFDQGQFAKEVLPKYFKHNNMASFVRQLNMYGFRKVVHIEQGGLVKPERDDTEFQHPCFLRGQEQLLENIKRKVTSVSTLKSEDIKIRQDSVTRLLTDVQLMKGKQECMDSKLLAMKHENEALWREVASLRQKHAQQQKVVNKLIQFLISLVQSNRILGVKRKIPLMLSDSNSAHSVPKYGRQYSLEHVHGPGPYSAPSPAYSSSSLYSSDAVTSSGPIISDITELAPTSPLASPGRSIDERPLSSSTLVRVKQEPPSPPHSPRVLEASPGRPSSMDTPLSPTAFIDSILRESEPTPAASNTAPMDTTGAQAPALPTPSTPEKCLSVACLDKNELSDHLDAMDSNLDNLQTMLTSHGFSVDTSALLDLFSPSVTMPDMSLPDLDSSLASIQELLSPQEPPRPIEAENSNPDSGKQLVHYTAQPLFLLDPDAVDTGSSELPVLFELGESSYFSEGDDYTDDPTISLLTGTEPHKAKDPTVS
Nature of the assay: decrease of HSF1-responsive luciferase luminescence – cell-based, NIH3T3, dose retest, confirmation (AID 2382).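 Also: NIH3T3 fibroblasts with HSF1-driven luciferase reporter stressed by proteasome inhibitor MG132; luminescence from HSF1-driven luciferase expression after 8 hours of MG132 stress.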 Format: functional.

A further assay deals with Cytochrome P450 2C9 (Homo sapiens, UniProt P11712).
Sequence of Cytochrome P450 2C9 (P11712 whole entry): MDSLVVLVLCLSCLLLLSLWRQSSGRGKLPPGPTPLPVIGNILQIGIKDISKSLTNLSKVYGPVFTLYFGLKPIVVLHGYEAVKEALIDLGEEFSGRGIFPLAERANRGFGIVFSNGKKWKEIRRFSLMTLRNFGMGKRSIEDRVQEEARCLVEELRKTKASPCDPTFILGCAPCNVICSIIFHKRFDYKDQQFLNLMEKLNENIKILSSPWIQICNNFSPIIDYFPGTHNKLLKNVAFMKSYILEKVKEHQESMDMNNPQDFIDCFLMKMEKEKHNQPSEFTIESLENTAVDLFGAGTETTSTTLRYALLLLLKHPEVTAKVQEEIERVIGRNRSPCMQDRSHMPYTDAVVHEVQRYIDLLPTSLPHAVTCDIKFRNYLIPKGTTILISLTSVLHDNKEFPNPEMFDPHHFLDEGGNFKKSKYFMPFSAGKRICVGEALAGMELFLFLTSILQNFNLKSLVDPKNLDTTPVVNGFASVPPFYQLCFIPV
Assay [3] in a line: NIH3T3 cell viability loss – ATP luminescence, mouse fibroblasts, counter-screen, dose response (AID 2010).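 Also: cells exposed to compound for about 90 hours before reading.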 Format: functional, cell-based. (In general: A counterscreen serves to expose hits that act by an unwanted route or on another target.)
Assay [4] is described as follows: Trypanosoma cruzi growth suppression in host cells – NIH3T3 host cells, beta-gal luminescence, confirmation (AID 2044).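 Also: intracellular parasites grown in NIH/3T3 mouse fibroblasts as host cells; luminescent beta-galactosidase reporter signal from transgenic T. cruzi replicating inside host cells; inhibitors lower the luminescence signal.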 It is filed as functional, cell-based.
For assay [5], the system named is Streptococcus sp. 'group A'. Nature of the assay: Streptococcus pyogenes SK(-)GAS viability under kanamycin – luminescence, BacTiterGlo, confirmation, counter-screen for streptokinase expression inhibitor project, dose response (AID 1900). Format: functional, organism-based.
In a further assay the test system is Streptococcus. As to the kind of experiment: GAS UMAA2166 growth inhibition – luminescence, BacTiterGlo, counter-screen for streptokinase expression inhibitor project, dose response (AID 1915).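 Also: potency for reduction of bacterial viability or growth.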 It is filed as functional, organism-based.

Active and inactive are the calls of the source. Rule as the data show it, for most assays here: actives have a measured EC50 and inactives only a lower limit. A value given as a limit tells only on which side of the number the result lay.

Sequence of Cytochrome P450 2D6 (P10635 whole entry): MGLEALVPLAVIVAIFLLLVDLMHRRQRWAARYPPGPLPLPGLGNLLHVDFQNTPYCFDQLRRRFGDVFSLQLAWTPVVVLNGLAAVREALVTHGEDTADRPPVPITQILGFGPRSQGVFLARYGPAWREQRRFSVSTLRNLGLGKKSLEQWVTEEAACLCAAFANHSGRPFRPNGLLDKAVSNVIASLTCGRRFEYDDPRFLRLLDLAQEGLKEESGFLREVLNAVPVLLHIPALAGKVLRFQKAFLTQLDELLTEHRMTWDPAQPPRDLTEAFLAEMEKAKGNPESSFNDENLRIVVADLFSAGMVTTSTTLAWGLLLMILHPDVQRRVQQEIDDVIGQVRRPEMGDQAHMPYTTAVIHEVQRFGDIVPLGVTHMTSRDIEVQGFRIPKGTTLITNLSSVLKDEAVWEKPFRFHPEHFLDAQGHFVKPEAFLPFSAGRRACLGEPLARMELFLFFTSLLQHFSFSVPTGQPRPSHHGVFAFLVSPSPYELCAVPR

As for `COc1ccc(Cn2nnc3c(O)nc(C4CCN(S(=O)(=O)c5ccc(C)cc5)CC4)nc32)cc1`, the CC50 in assay [1] was 15.7 µM (active).
In the case of `O=c1c(-c2ccc(F)cc2)nc2cnc(N3CCNCC3)nc2n1Cc1cccs1`, at Cytochrome P450 2D6, the half-maximal activity concentration (AC50) is 20 µM (inconclusive).
In the case of `COc1cc(C(C(=O)NCc2ccccc2)N(Cc2ccco2)C(=O)c2cnccn2)cc(OC)c1OC` (centres undefined), the EC50 in assay [2] is > 195 µM (not active).
On the same count and under the same terms, as for `O=C1NC(=O)C2(CCc3ccccc32)N1` (centres undefined), the figure is > 195 µM (not active).
As to `Cc1ccc(/C(C#N)=C\c2cn(C)c3ccccc23)cc1`, the CC50 in assay [1] is 33.5 µM (active).
`Cn1nc(C(F)(F)F)c(C(=O)Nc2ccc(F)cc2F)c1Sc1ccc(C(F)(F)F)cc1`: the AC50 on Cytochrome P450 2D6 is 14.1 µM (inconclusive).
`CS(=O)(=O)Nc1cccc(-c2ccc3ncnc(NCc4cccs4)c3c2)c1`: at Cytochrome P450 2C9, the AC50 was 0.501 µM (inconclusive).
Regarding `CC(C)OC(=O)C1=C2SCC(=O)N2C(N)=C(C#N)C1`, the AC50 on Cytochrome P450 2D6 is 25.1 µM (inconclusive).
For the molecule `Clc1cccc(/C=N\C=N/c2cccc(Cl)c2)c1`, the AC50 on Cytochrome P450 2D6 was 25.1 µM (inconclusive).
Take `CN1CCc2c(cc(O)c(O)c2Cl)[C@H](c2cccc(Cl)c2)C1`: on Cytochrome P450 2D6, the AC50 is 31.6 µM (inconclusive).
With `Cn1c(=O)c2c(nc(Oc3cccc(O)c3)n2C)n(C)c1=O`, the EC50 in assay [2] is recorded as > 195 µM (not active).
For `CCC(C)c1ccccc1NC(=O)c1cc2cccc([N+](=O)[O-])c2[nH]1` (centres undefined), the EC50 in assay [3] is > 60 µM (not active); in assay [4] it was 1.35 µM (active).
For the molecule `O=C(Oc1ccccc1)N1CCC[C@@]2(CCN(c3ccccn3)C2)C1`, the AC50 at Cytochrome P450 2C9 is 39.8 µM (inconclusive).
Turning to `CCOC(=O)C1=C(C)N(CCC(=O)O)C(=O)NC1c1ccccc1Cl` (centres undefined), the EC50 in assay [2] is > 195 µM (not active).
On to `C[n+]1c(/C=C/c2ccc3c(c2)OCO3)ccc2ccccc21`, for which the EC50 in assay [2] is 0.181 µM (active).
Turning to `COc1ccc(Nc2nc(-c3cccs3)nc3ccccc23)cc1S(=O)(=O)N1CCOCC1`, the CC50 in assay [1] is 17.1 µM (active). The EC50 in assay [3] is 10.1 µM (active); in assay [4] it was 1.25 µM (active).
On to `COc1ccc(Cn2nnnc2C(c2cc3cccc(C)c3nc2O)N2CCN(C)CC2)cc1` (centres undefined), for which the EC50 in assay [2] is given as > 195 µM (not active).
Take `Cc1cccc(CNc2ccnc(-c3ccoc3)n2)c1`: on Cytochrome P450 2D6, the AC50 is 31.6 µM (inconclusive).
For `COc1ccc(Cn2c(SC)nc3ccccc32)cc1[N+](=O)[O-]`, in assay [2], the EC50 is reported as > 195 µM (not active).
Regarding `O=C(O)CCn1cc(/C=C2\NC(=S)N(c3ccccc3)C2=O)c(-c2ccc(Br)cc2)n1`, in assay [2], the EC50 is given as > 195 µM (not active).
Consider `O=C(C(NS(=O)(=O)c1cccs1)c1ccccc1)N1CCN(c2ccccc2)CC1` (centres undefined), for which the AC50 at Cytochrome P450 2D6 was 25.1 µM (inconclusive).
Turning to `CCN(CC)CCNc1cc(C)c(C#N)c2nc3ccccc3n12`, the EC50 in assay [3] is > 60 µM (not active); in assay [4], 1.09 µM (active).
With `COc1ccc(CNC(=O)C2CC(c3ccc(OC)cc3)=NO2)cc1` (centres undefined), the AC50 on Cytochrome P450 2D6 was 8.91 µM (inconclusive).
Consider `N#Cc1cccc(C#N)c1Oc1ccc(S(=O)(=O)Nc2ccc(Cl)cc2)cc1`, for which the EC50 in assay [2] is > 195 µM (not active).
As for `CN(C)Cc1cc(O)c(O)c(CN(C)C)c1`, the AC50 on Cytochrome P450 2C9 was 7.94 µM (inconclusive).
As for `Cc1nn(Cc2cccc(C(=O)Nc3ccn(Cc4c(F)c(F)cc(F)c4F)n3)c2)c(C)c1[N+](=O)[O-]`, the CC50 in assay [1] is 23.8 µM (active). For the same molecule, the EC50 is > 60 µM (not active) in assay [3] and 0.882 µM (active) in assay [4].
For `Clc1ccc(-n2cccc2CN2CCc3c([nH]c4ccccc34)C2c2ccccn2)nc1` (centres undefined), the CC50 in assay [1] was 25.1 µM (active).
Still for that read-out and setting: under `O=C(NCc1ccccc1Cl)C(=O)c1c[nH]c2ccccc12` stands > 6.25 µM (active).
As for `CCCS(=O)(=O)N1CCCC(C(=O)NCCN2CCOCC2)C1` (centres undefined), the AC50 at Cytochrome P450 2C9 was 7.08 µM (inconclusive).
With `CC(C)OCCCn1c(NN)nc2ccccc2c1=O`, the EC50 in assay [2] is > 195 µM (not active).
With `CC1CCCN(S(=O)(=O)c2ccc(Br)s2)C1` (centres undefined), in assay [2], the EC50 is reported as > 195 µM (not active).
For `Cc1cc(C(=O)NNS(=O)(=O)c2ccc(F)cc2)nn1C(C)(C)C`, in assay [2], the EC50 is recorded as > 195 µM (not active).
For `C[C@H](NC[C@H](O)CP(=O)(O)Cc1ccccc1)c1ccc(Cl)c(Cl)c1`, the AC50 at Cytochrome P450 2C9 is 15.8 µM (inconclusive).
Consider `CC(NC(=O)c1ccccc1Br)c1ccc2c(c1)CCCC2` (centres undefined), for which the CC50 in assay [1] is 21.5 µM (active).
For `CCCCCCCC(=O)NNC(=O)c1c(O)c2ccccc2n(CCC)c1=O`, the EC50 in assay [5] is 2670 nM (active); in the assay on Streptococcus it was 4.91 µM (active).
For `O=C(NC(c1ccccc1)c1cc(Cl)c2cccnc2c1O)c1cccnc1` (centres undefined), the EC50 in assay [3] is > 60 µM (not active); in assay [4], 0.488 µM (active); in assay [5], 640 nM (active); with Streptococcus, 2.15 µM (active).
In the case of `O=C(COc1ccccc1)NC1C(=O)N2C(C(=O)O)=C(Cl)CSC12` (centres undefined), the EC50 was 301 nM (active) in assay [5] and 0.372 µM (active) with Streptococcus.
Consider `O=c1ccc2ccc(OCCOc3cccc(Cl)c3)cc2o1`, for which the CC50 in assay [1] is 42.4 µM (active).
Regarding `Cn1c(=O)c(-c2cccc(Cl)c2)nc2cncnc21`, on Cytochrome P450 2C9, the AC50 was 39.8 µM (inconclusive).
On to `CCOc1cc(-n2ncc(C#N)c2N)nc(SC)n1`, for which, in assay [1], the CC50 was 17.1 µM (active).
For the molecule `CS(=O)(=O)N1CCc2cc(-c3csc(NC(=O)C(c4ccccc4)c4ccccc4)n3)ccc21`, the EC50 is > 60 µM (not active) in assay [3] and 1.45 µM (active) in assay [4].
Consider `COc1ccc(CC(=O)Nc2cc(C)on2)cc1`, for which the EC50 in assay [2] is listed as > 195 µM (not active).
On to `Cn1c(/C=C/c2ccccc2)nc2ccccc2c1=O`, for which the EC50 in assay [2] was > 195 µM (not active).
Turning to `O=C(Nc1ccc(Cl)cn1)c1ccc2c(Cl)c3c(nc2c1)CCC3`, in assay [2], the EC50 is 22.5 µM (active).
With `Cc1occc1-c1nc(-c2ccncc2)no1`, the CC50 in assay [1] is 39.6 µM (active).
On to `COc1ccc(/C=N/c2c(-c3ccc(OC)cc3)nc3n2CCS3)cc1`, for which the EC50 in assay [2] was > 195 µM (not active).
On to `COc1ccc(-c2cc(-c3ccccc3)nc(Cl)n2)cc1OC`, for which, in assay [1], the CC50 was 19.1 µM (active).
Regarding `COc1cccc(Cn2c(=O)c(-c3cc(F)cc(F)c3)nc3cnc(OC)nc32)c1`, the AC50 on Cytochrome P450 2C9 was 3.16 µM (inconclusive).
`C=CCSc1nc(N)cc(O)n1`: the EC50 in assay [2] is listed as > 195 µM (not active).
On the same count and under the same terms, as for `O=[N+]([O-])c1ccc(N2CCN(Cc3ccc4c(c3)OCO4)CC2)nc1`, the figure is > 195 µM (not active).
For the molecule `COC(=O)C(O)(c1ccc(NC(=S)NC(=O)c2ccc(Cl)cc2Cl)cc1)C(F)(F)F` (centres undefined), the CC50 in assay [1] was > 50 µM (active).
Turning to `CN1CCN(c2ccc([N+](=O)[O-])c(N/N=C3\CN4CCC3CC4)c2)CC1`, the AC50 at Cytochrome P450 2C9 is 0.01 µM (inconclusive).
For `CCN(CC)CCCN/C(C)=C1\C(=O)NC(=O)N(C2CCCCC2)C1=O`, the EC50 in assay [3] is > 60 µM (not active); in assay [4], 0.35 µM (active).
Consider `COc1cccc(C(=O)Nc2cccc(-c3ccccc3)c2)c1`, for which the CC50 in assay [1] was 29.6 µM (active).
Turning to `Cn1nc(-c2ccc(Cl)cc2)cc1NC(=O)Nc1ccccc1`, in assay [1], the CC50 is > 50 µM (active).
Turning to `CNCCCCOc1ccc(C(C)(C)C)cc1Cl`, the EC50 in assay [3] is 9.37 µM (active); in assay [4], 0.834 µM (active).
For `O=S(=O)(NCC(c1cccnc1)N1CCN(Cc2ccccc2)CC1)c1ccccc1` (centres undefined) the same measures were > 60 µM (not active) and 0.634 µM (active).
Turning to `CCN1c2nc3c(C)cccn3c(=O)c2CC2(C(=O)N(C)C(=O)N(C)C2=O)C1C` (centres undefined), the EC50 in assay [2] is listed as > 195 µM (not active).
For `CCC(C(=O)NC(C)(C)C)N(Cc1ccc(F)cc1)C(=O)c1snc(C(N)=O)c1N` (centres undefined), the EC50 in assay [2] was > 195 µM (not active).
As for `CN(C)C(=O)N1CCC(C(=O)NCc2ccc(F)cc2Cl)CC1`, the EC50 in assay [2] was > 195 µM (not active).
In the case of `FC(F)(F)c1ccccc1-c1nc(Nc2ccncc2)c2ccccc2n1`, the AC50 on Cytochrome P450 2C9 was 0.794 µM (inconclusive).
In the case of `Cc1ccc(-n2c(S)nnc2CNc2ccc(C)c(Cl)c2)cc1`, the CC50 in assay [1] was 27.7 µM (active).
With `COC(=O)C(Cc1ccccc1)NC(=O)CNC(=O)c1sc2ccccc2c1Cl` (centres undefined), the EC50 in assay [2] was > 195 µM (not active).
With `CCc1cccc(Nc2c([N+](=O)[O-])cc(C(=O)N3CC(=O)Nc4ccccc43)cc2[N+](=O)[O-])c1`, the EC50 in assay [3] is > 30 µM (not active); in assay [4] it was 1.1 µM (active).
Turning to `Cn1nc([N+](=O)[O-])nc1Oc1ccccc1`, the EC50 is > 60 µM (not active) in assay [3] and 0.459 µM (active) in assay [4].
Regarding `COCCNC(=O)CCc1nnc(C2(c3ccc(Cl)cc3)CCC2)o1`, the EC50 in assay [2] is given as > 195 µM (not active).
With `CCN(CC)CCn1c(=N)n(CCOc2ccccc2)c2ccccc21`, in assay [4], the EC50 is 1.43 µM (active).
